From PubChem BioAssay (NCI)
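Method: 48-hour compound exposure of cells in 96-well plates, five concentrations, linear interpolation of endpoints. TGI: total growth inhibition.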

How the values were obtained:
Assay in all cases: NCI-60 cell line screen, 48 h
SK-MEL-28 melanoma = system: SK-MEL-28 melanoma
NCI-H460 lung = system: NCI-H460 lung
LOX IMVI melanoma = system: LOX IMVI melanoma
MDA-N = system: MDA-N
NCI/ADR-RES ovarian = system: NCI/ADR-RES ovarian
DU-145 prostate = system: DU-145 prostate
SF-295 CNS = system: SF-295 CNS
HL-60(TB) leukemia = system: HL-60(TB) leukemia
SF-268 CNS = system: SF-268 CNS
SW-620 colon = system: SW-620 colon
NCI-H226 lung = system: NCI-H226 lung
SN12C renal = system: SN12C renal
MALME-3M melanoma = system: MALME-3M melanoma
SNB-75 CNS = system: SNB-75 CNS
KM12 colon = system: KM12 colon
T-47D breast = system: T-47D breast
RXF 393 renal = system: RXF 393 renal
OVCAR-8 ovarian = system: OVCAR-8 ovarian
SK-MEL-2 melanoma = system: SK-MEL-2 melanoma
SK-MEL-5 melanoma = system: SK-MEL-5 melanoma
OVCAR-4 ovarian = system: OVCAR-4 ovarian
MDA-MB-231 breast = system: MDA-MB-231 breast
MOLT-4 leukemia = system: MOLT-4 leukemia
786-0 renal = system: 786-0 renal
HT29 colon = system: HT29 colon
HCT-15 colon = system: HCT-15 colon
HS 578T breast = system: HS 578T breast
U251 CNS = system: U251 CNS
BT-549 breast = system: BT-549 breast
HOP-92 NSCLC = system: HOP-92 NSCLC
A498 renal = system: A498 renal
HCC-2998 colon = system: HCC-2998 colon
CCRF-CEM leukemia = system: CCRF-CEM leukemia
UO-31 renal = system: UO-31 renal
HOP-62 NSCLC = system: HOP-62 NSCLC
OVCAR-5 ovarian = system: OVCAR-5 ovarian
SF-539 CNS = system: SF-539 CNS
NCI-H522 lung = system: NCI-H522 lung
IGROV1 ovarian = system: IGROV1 ovarian
OVCAR-3 ovarian = system: OVCAR-3 ovarian
HCT-116 colon = system: HCT-116 colon
UACC-62 melanoma = system: UACC-62 melanoma
EKVX NSCLC = system: EKVX NSCLC
ACHN renal = system: ACHN renal
M14 melanoma = system: M14 melanoma
TK-10 renal = system: TK-10 renal
SK-OV-3 ovarian = system: SK-OV-3 ovarian
MCF7 breast = system: MCF7 breast
COLO 205 colon = system: COLO 205 colon
K-562 leukemia = system: K-562 leukemia
RPMI-8226 leukemia = system: RPMI-8226 leukemia
NCI-H23 lung = system: NCI-H23 lung
UACC-257 melanoma = system: UACC-257 melanoma
PC-3 prostate = system: PC-3 prostate
SNB-19 CNS = system: SNB-19 CNS
CAKI-1 renal = system: CAKI-1 renal
A549 NSCLC = system: A549 NSCLC
SR leukemia = system: SR leukemia
MDA-MB-435 = system: MDA-MB-435

CN(C)/C=C/c1ccnc2c1C(=O)c1ccccc1C2=O showed a TGI (SK-MEL-28 melanoma) of 5.95 µM, a TGI (NCI-H460 lung) of 7.13 µM and a TGI (LOX IMVI melanoma) of 20.7 µM. It also gave a TGI (MDA-N) of 3.03 µM, a TGI (NCI/ADR-RES ovarian) of 57.4 µM and a TGI (DU-145 prostate) of 3.41 µM. The TGI (SF-295 CNS) was 14.3 µM, the TGI (HL-60(TB) leukemia) was > 55.5 µM and the TGI (SF-268 CNS) was > 69 µM. For the same compound, the TGI (SW-620 colon) was 21.5 µM, the TGI (NCI-H226 lung) was > 52.7 µM and the TGI (SN12C renal) was 19.8 µM. The TGI (MALME-3M melanoma) was 5.09 µM, the TGI (SNB-75 CNS) was 16.1 µM and the TGI (KM12 colon) was > 64.2 µM. For the same compound, the TGI (T-47D breast) was > 85 µM, the TGI (RXF 393 renal) was > 100 µM and the TGI (OVCAR-8 ovarian) was 59.1 µM. For the same compound, the TGI (SK-MEL-2 melanoma) was 18.3 µM, the TGI (SK-MEL-5 melanoma) was 4.22 µM and the TGI (OVCAR-4 ovarian) was 66 µM. For the same compound, the TGI (MDA-MB-231 breast) was > 89 µM, the TGI (MOLT-4 leukemia) was > 64.1 µM and the TGI (786-0 renal) was 73.6 µM. It also gave a TGI (HT29 colon) of 37.9 µM, a TGI (HCT-15 colon) of 31.5 µM and a TGI (HS 578T breast) of 7.06 µM. The TGI (U251 CNS) was 49.7 µM, the TGI (BT-549 breast) was 14.9 µM and the TGI (HOP-92 NSCLC) was > 100 µM. The TGI (A498 renal) was > 85.6 µM, the TGI (HCC-2998 colon) was 22.6 µM and the TGI (CCRF-CEM leukemia) was > 56 µM. For the same compound, the TGI (UO-31 renal) was 43.6 µM, the TGI (HOP-62 NSCLC) was 62.6 µM and the TGI (OVCAR-5 ovarian) was 32.5 µM. It also gave a TGI (SF-539 CNS) of 39.5 µM, a TGI (NCI-H522 lung) of 24.2 µM and a TGI (IGROV1 ovarian) of 35.2 µM. The TGI (OVCAR-3 ovarian) was > 100 µM, the TGI (HCT-116 colon) was 20.9 µM and the TGI (UACC-62 melanoma) was 2.9 µM. For the same compound, the TGI (EKVX NSCLC) was 44.3 µM, the TGI (ACHN renal) was > 50.7 µM and the TGI (M14 melanoma) was 4.16 µM. The TGI (TK-10 renal) was > 100 µM, the TGI (SK-OV-3 ovarian) was > 100 µM and the TGI (MCF7 breast) was > 44.7 µM. The TGI (COLO 205 colon) was > 55.1 µM, the TGI (K-562 leukemia) was > 47.1 µM and the TGI (RPMI-8226 leukemia) was 39.3 µM. For the same compound, the TGI (NCI-H23 lung) was 7.17 µM, the TGI (UACC-257 melanoma) was 6.19 µM and the TGI (PC-3 prostate) was 56.7 µM. For the same compound, the TGI (SNB-19 CNS) was 25.6 µM, the TGI (CAKI-1 renal) was 50.8 µM and the TGI (A549 NSCLC) was > 56.7 µM.

Compound Cc1cc(C)n(CN(Cn2nc(C)cc2C)c2ccc(N(Cn3nc(C)cc3C)Cn3nc(C)cc3C)cc2)n1 has a TGI (SK-MEL-28 melanoma) of 37.1 µM, a TGI (NCI-H460 lung) of 63.8 µM and a TGI (MDA-N) of 38.4 µM. For the same compound, the TGI (NCI/ADR-RES ovarian) was 43.2 µM, the TGI (DU-145 prostate) was 58.3 µM and the TGI (SF-295 CNS) was 83.8 µM. For the same compound, the TGI (HL-60(TB) leukemia) was > 100 µM, the TGI (SF-268 CNS) was 69.7 µM and the TGI (SW-620 colon) was 61.4 µM. The TGI (SN12C renal) was 51.9 µM, the TGI (MALME-3M melanoma) was 41.8 µM and the TGI (KM12 colon) was 58.2 µM. The TGI (T-47D breast) was 51.8 µM, the TGI (RXF 393 renal) was 42.6 µM and the TGI (OVCAR-8 ovarian) was 77.4 µM. The TGI (SK-MEL-2 melanoma) was 50.1 µM, the TGI (SK-MEL-5 melanoma) was 30.9 µM and the TGI (OVCAR-4 ovarian) was 43 µM. For the same compound, the TGI (MDA-MB-231 breast) was 88.1 µM, the TGI (MOLT-4 leukemia) was > 100 µM and the TGI (786-0 renal) was 43.4 µM. It also gave a TGI (HT29 colon) of 45 µM, a TGI (HCT-15 colon) of 45.4 µM and a TGI (HS 578T breast) of 57 µM. It also gave a TGI (U251 CNS) of 91.1 µM, a TGI (BT-549 breast) of 39.2 µM and a TGI (HOP-92 NSCLC) of 62.2 µM. For the same compound, the TGI (A498 renal) was 63.2 µM, the TGI (CCRF-CEM leukemia) was 63.9 µM and the TGI (UO-31 renal) was 95.2 µM. The TGI (SR leukemia) was > 100 µM, the TGI (HOP-62 NSCLC) was 52.7 µM and the TGI (OVCAR-5 ovarian) was 51.1 µM. For the same compound, the TGI (SF-539 CNS) was 35.3 µM, the TGI (NCI-H522 lung) was 42.5 µM and the TGI (IGROV1 ovarian) was 50.7 µM. For the same compound, the TGI (OVCAR-3 ovarian) was 49.3 µM, the TGI (HCT-116 colon) was 31.3 µM and the TGI (MDA-MB-435) was 35.9 µM. It also gave a TGI (UACC-62 melanoma) of 44.9 µM, a TGI (EKVX NSCLC) of 54.1 µM and a TGI (ACHN renal) of 38.2 µM. It also gave a TGI (M14 melanoma) of 36.5 µM, a TGI (TK-10 renal) of 69.8 µM and a TGI (SK-OV-3 ovarian) of 75.2 µM. It also gave a TGI (MCF7 breast) of 44.4 µM, a TGI (COLO 205 colon) of 31.5 µM and a TGI (K-562 leukemia) of 50.3 µM. It also gave a TGI (RPMI-8226 leukemia) of 40 µM, a TGI (NCI-H23 lung) of 58.6 µM and a TGI (UACC-257 melanoma) of 40.6 µM. The TGI (PC-3 prostate) was 74.6 µM, the TGI (SNB-19 CNS) was 64.5 µM and the TGI (CAKI-1 renal) was 62.4 µM. It also gave a TGI (A549 NSCLC) of 89.1 µM.

With O=S(=O)(N1CCCCN(S(=O)(=O)C(F)(F)F)CCCN(S(=O)(=O)C(F)(F)F)CCCN(S(=O)(=O)C(F)(F)F)CCCCN(S(=O)(=O)C(F)(F)F)CCCN(S(=O)(=O)C(F)(F)F)CCC1)C(F)(F)F the TGI (SK-MEL-28 melanoma) was > 100 µM, the TGI (NCI-H460 lung) was > 100 µM and the TGI (LOX IMVI melanoma) was > 100 µM. For the same compound, the TGI (MDA-N) was > 100 µM, the TGI (NCI/ADR-RES ovarian) was > 100 µM and the TGI (DU-145 prostate) was > 100 µM. For the same compound, the TGI (SF-295 CNS) was 82.1 µM, the TGI (HL-60(TB) leukemia) was > 100 µM and the TGI (SF-268 CNS) was > 100 µM. For the same compound, the TGI (SW-620 colon) was > 100 µM, the TGI (NCI-H226 lung) was > 100 µM and the TGI (SN12C renal) was > 100 µM. The TGI (MALME-3M melanoma) was 49.5 µM, the TGI (SNB-75 CNS) was 92.8 µM and the TGI (KM12 colon) was > 100 µM. For the same compound, the TGI (T-47D breast) was > 100 µM, the TGI (RXF 393 renal) was 70.2 µM and the TGI (OVCAR-8 ovarian) was > 100 µM. For the same compound, the TGI (SK-MEL-2 melanoma) was > 100 µM, the TGI (SK-MEL-5 melanoma) was > 100 µM and the TGI (OVCAR-4 ovarian) was > 100 µM. For the same compound, the TGI (MDA-MB-231 breast) was > 100 µM, the TGI (MOLT-4 leukemia) was > 100 µM and the TGI (786-0 renal) was 35.3 µM. For the same compound, the TGI (HT29 colon) was > 100 µM, the TGI (HCT-15 colon) was > 100 µM and the TGI (HS 578T breast) was 92.4 µM. The TGI (U251 CNS) was 64.1 µM, the TGI (BT-549 breast) was 73.2 µM and the TGI (HOP-92 NSCLC) was > 100 µM. The TGI (A498 renal) was > 100 µM, the TGI (HCC-2998 colon) was > 100 µM and the TGI (CCRF-CEM leukemia) was > 100 µM. The TGI (UO-31 renal) was > 100 µM, the TGI (HOP-62 NSCLC) was > 100 µM and the TGI (OVCAR-5 ovarian) was > 100 µM. For the same compound, the TGI (SF-539 CNS) was 84.1 µM, the TGI (NCI-H522 lung) was > 100 µM and the TGI (IGROV1 ovarian) was > 100 µM. The TGI (OVCAR-3 ovarian) was > 100 µM, the TGI (HCT-116 colon) was > 100 µM and the TGI (MDA-MB-435) was > 100 µM. The TGI (UACC-62 melanoma) was > 100 µM, the TGI (EKVX NSCLC) was > 100 µM and the TGI (ACHN renal) was > 100 µM. For the same compound, the TGI (M14 melanoma) was > 100 µM, the TGI (TK-10 renal) was > 100 µM and the TGI (SK-OV-3 ovarian) was > 100 µM. For the same compound, the TGI (MCF7 breast) was > 100 µM, the TGI (COLO 205 colon) was > 100 µM and the TGI (K-562 leukemia) was > 100 µM. The TGI (NCI-H23 lung) was > 100 µM, the TGI (UACC-257 melanoma) was > 100 µM and the TGI (PC-3 prostate) was > 100 µM. For the same compound, the TGI (SNB-19 CNS) was > 100 µM, the TGI (CAKI-1 renal) was > 100 µM and the TGI (A549 NSCLC) was > 100 µM.
